{"source": "paper PMC12785453", "about": "“Oral Fluid Concentrations and Pharmacological Effects of Clephedrone and Methylone in Humans” (International Journal of Molecular Sciences, 2025)", "key": {"[1]": {"system": "healthy volunteers", "assay": "Subjective effects, ARCI short form, clephedrone study", "assay_type": "in vivo, humans", "conditions": "100 or 150 mg oral, n=8", "from_the_text": "(§1) The study evaluating the acute effects of clephedrone was designed as a non-controlled, prospective, observational, and naturalistic study. The procedures and evaluations included in this study have been described in previous studies evaluating other synthetic cathinones (mephedrone, methylone, alpha-PVP, NEP, HEXEN), phenethylamines (2C-B and 2C-E), or synthetic cannabinoids (JWH-122, JWH-210, UR-144).\n(§2) This study consisted of one experimental session in which participants (N = 8; 6 women, 2 men) selected their oral dose of clephedrone based on their drug use experience and preferences. According to their dose selection, 3 women and 1 man ingested 100 mg of clephedrone, while the remaining 3 women and 1 man opted for a higher dose of 150 mg. […] Participants were recruited by word of mouth by the harm reduction organization Energy Control in Barcelona (Associació Benestar i Desenvolupament, ABD).\n(§3) Subjective effects were evaluated with visual analog scales (VAS), the short form of the Addiction Research Center Inventory (ARCI), and the Evaluation of Subjective Effects of Substances with Abuse Potential questionnaire (VESSPA-SSE). In addition, the Sensitivity to Drug Reinforcement Questionnaire (SDRQ) and a pharmacological identification class questionnaire were used in the controlled study administering methylone.\nThe validated ARCI 49-item short form was used to evaluate and discriminate the subjective following five subscales that correspond to different classes of drugs of abuse: pentobarbital-chlorpromazine-alcohol group (PCAG) is susceptible to sedative effects, morphine-benzedrine group (MBG) is susceptible to euphoric effects, lysergic acid diethylamide (LSD) is susceptible to dysphoria and somatic symptoms, benzedrine (BG) is susceptible to intellectual efficiency and energy, and amphetamine (A) is susceptible to amphetamine-like effects.\n(§4) Participants included in the naturalistic clephedrone study completed VAS at baseline, 0.50, 1, 1.5, 2, 3, 4, and 5 h, and ARCI and VESSPA at baseline, 1, 2, 3, 4, and 5 h after self-administering clephedrone. In the controlled study, VAS was performed at baseline and 0.25, 0.50, 0.75, 1, 1.5, 2, 3, 4, 6, 8, 10, and 24 h, and ARCI and VESSPA at baseline and 1, 2, 3, 4, 6, 8, and 10 h after administering methylone. Participants completed SDRQ and VAS sexual desire and arousal at baseline, 1 and 10 h, and the pharmacological class identification questionnaire at 8 h.\n(§5) For statistical analysis, values of physiological (SBP, DBP, HR, and T) and subjective effects (VAS, ARCI, and VESSPA-SSE) were baseline–adjusted. Maximum effects (Emax) and the time needed to reach maximum effects (Tmax) were determined, and the area under the curve up to 5 h (AUC0–5h) for clephedrone and up to 6 h (AUC0–6h) for methylone was calculated using the trapezoidal rule. Emax and AUC values are presented as mean ± standard deviation, whereas Tmax is presented in median (range).\n(§6) To find possible significant changes through the time course compared to baseline, a Dunnett multiple comparison test was carried out to compare each time point with baseline in both drug conditions. For clephedrone the comparisons were 0–0.5 h, 0–1 h, 0–1.5 h, 0–2 h, 0–3 h, 0–4 h and 0–5 h, and for methylone this analysis included 0–0.25 h, 0–0.5 h, 0–0.75 h, 0–1 h, 0–1.5 h, 0–2 h, 0–3 h, 0–4 h and 0–6 h. Given their different study designs, no comparative analysis between the time courses of both synthetic cathinones was conducted."}, "[2]": {"system": "healthy volunteers", "assay": "Subjective effects, VESSPA-SSE, clephedrone study", "assay_type": "in vivo, humans", "conditions": "100 or 150 mg oral, n=8", "from_the_text": "as §1, §2, §3\nThe VESSPA-SSE questionnaire, used to evaluate the subjective effects of stimulant drugs, The questionnaire includes 36-items and consists of six subscales that measure sedation (S), psychosomatic anxiety (ANX), changes in perception (CP), pleasure and sociability (SOC), activity and energy (ACT), and psychotic symptoms (PS).\nas §4, §5, §6"}, "[3]": {"conditions": "cited from earlier work"}, "[4]": {"assay": "Oral fluid concentrations of methylone (LC-MS/MS)", "assay_type": "in vivo, humans", "conditions": "150 or 200 mg oral", "protocol": "Methylone pharmacology was evaluated in a study designed as a randomized, double-blind, placebo-controlled, crossover clinical trial. Four pilot studies were conducted administering methylone at oral doses of 50 (n = 3), 100 (n = 6), 150 (n = 5), and 200 mg (n = 7). Participants attended 3 experimental sessions separated by a one-week wash-out period and received two doses of methylone (one dose per experimental session) compared to placebo, except in the last pilot study in which participants received one dose of methylone, compared to MDMA and placebo. However, in this manuscript, only the results corresponding to the highest methylone doses (n = 12; 150 and 200 mg; mean dose = 179.2 mg) are presented, to enable comparison with clephedrone self-administration. Participants were recruited by word of mouth in the volunteer database of the clinical pharmacology unit.\nIn both studies, oral fluid samples for the quantification of clephedrone and methylone concentration were collected using Salivette standard tubes. For clephedrone, oral fluid samples were collected at baseline, 0.50, 1, 1.5, 2, 3, 4, and 5 h, whereas for methylone, they were collected at baseline, 0.25, 0.50, 0.75, 1, 1.5, 2, 3, 4, 6, 8, and 10 h. After collection, all samples were centrifuged and stored frozen at −20 °C until analysis. Clephedrone oral fluid concentrations were determined using a previously validated gas chromatography coupled to mass spectrometry systems (GC-MS/MS). Methylone was quantified via liquid chromatography–tandem mass spectrometry (LC–MS/MS).\nFor oral fluid concentrations of clephedrone and methylone, only a descriptive analysis was performed to obtain the main pharmacokinetics data, including the maximum concentration (Cmax), the time required to reach maximum concentrations (Tmax), and AUC up to 5 h (AUC0–5h) for clephedrone and up to 6 h (AUC0–6h) for methylone. These parameters were calculated using the Pharmacokinetic Functions for Microsoft Excel (Joel Usansky, Atul Desai, and Diane Tang-Liu, Department of Pharmacokinetics and Drug Metabolism, Allergan, Irvine, CA, USA). […]"}}, "note": "Where two headings read alike, the source gives them in different places.", "data": [{"smiles": "CNC(C)C(=O)c1ccc(Cl)cc1", "note": "(stereo not shown) [Clephedrone, 4-chloromethcathinone]", "values": [{"measurement": "ARCI A (amphetamine-like effects) Emax", "setting": "[1]", "value": "5.88 ± 0.99", "unit": "points"}, {"measurement": "ARCI BG (intellectual efficiency) Emax", "setting": "[1]", "value": "4.13 ± 0.99", "unit": "points"}, {"measurement": "ARCI LSD (dysphoria) Emax", "setting": "[1]", "value": "1.25 ± 2.19", "unit": "points"}, {"measurement": "ARCI MBG (euphoria) Emax", "setting": "[1]", "value": "12.13 ± 2.03", "unit": "points"}, {"measurement": "ARCI PCAG (sedation) Emax", "setting": "[1]", "value": "0.88 ± 4.19", "unit": "points"}, {"measurement": "ARCI A (amphetamine-like effects) AUC0-5/6 h", "setting": "[1]; AUC0–5h", "value": "18.75 ± 3.54", "unit": "points·h"}, {"measurement": "ARCI BG (intellectual efficiency) AUC0-5/6 h", "setting": "[1]; AUC0–5h", "value": "10.56 ± 5.30", "unit": "points·h"}, {"measurement": "ARCI LSD (dysphoria) AUC0-5/6 h", "setting": "[1]; AUC0–5h", "value": "1.81 ± 4.39", "unit": "points·h"}, {"measurement": "ARCI MBG (euphoria) AUC0-5/6 h", "setting": "[1]; AUC0–5h", "value": "37.56 ± 11.83", "unit": "points·h"}, {"measurement": "ARCI PCAG (sedation) AUC0-5/6 h", "setting": "[1]; AUC0–5h", "value": "–3.31 ± 5.44 points·h"}, {"measurement": "VESSPA ANX (psychosomatic anxiety) Emax", "setting": "[2]", "value": "1.33 ± 0.45", "unit": "points"}, {"measurement": "VESSPA CP (changes in perception) Emax", "setting": "[2]", "value": "0.02 ± 0.06", "unit": "points"}, {"measurement": "VESSPA CP (changes in perception) Tmax", "setting": "[2]", "value": "0.0 (0.0–1.0) h"}, {"measurement": "VESSPA S (sedation) Emax", "setting": "[2]", "value": "0.90 ± 0.73", "unit": "points"}, {"measurement": "VESSPA SOC (pleasure and sociability) Emax", "setting": "[2]", "value": "2.85 ± 0.47", "unit": "points"}, {"measurement": "VESSPA-ACT (activity and energy) Emax", "setting": "[2]", "value": "2.52 ± 0.46", "unit": "points"}, {"measurement": "VESSPA-PS (psychotic symptoms) Emax", "setting": "[2]", "value": "0.38 ± 0.50", "unit": "points"}, {"measurement": "VESSPA ANX (psychosomatic anxiety) AUC0-5/6 h", "setting": "[2]; AUC0–5h", "value": "3.01 ± 0.95", "unit": "points·h"}, {"measurement": "VESSPA CP (changes in perception) AUC0-5/6 h", "setting": "[2]; AUC0–5h", "value": "0.06 ± 0.18", "unit": "points·h"}, {"measurement": "VESSPA S (sedation) AUC0-5/6 h", "setting": "[2]; AUC0–5h", "value": "1.69 ± 1.43", "unit": "points·h"}, {"measurement": "VESSPA SOC (pleasure and sociability) AUC0-5/6 h", "setting": "[2]; AUC0–5h", "value": "7.74 ± 3.00", "unit": "points·h"}, {"measurement": "VESSPA-ACT (activity and energy) AUC0-5/6 h", "setting": "[2]; AUC0–5h", "value": "5.93 ± 2.65", "unit": "points·h"}, {"measurement": "VESSPA-PS (psychotic symptoms) AUC0-5/6 h", "setting": "[2]; AUC0–5h", "value": "1.15 ± 2.02", "unit": "points·h"}, {"measurement": "Blood concentrations, mean", "setting": "[3]; fatal cases", "value": 547, "unit": "ng/mL"}, {"measurement": "Blood concentrations, mean", "setting": "[3]; traffic controls, non-fatal cases (n = 9)", "value": 21.1, "unit": "ng/mL"}]}, {"smiles": "CNC(C)C(=O)c1ccc2c(c1)OCO2", "note": "(stereo not shown) [Methylone, 3,4-methylenedioxy-N-methylcathinone]", "values": [{"measurement": "Oral fluid concentration at 6 h, times lower than Cmax", "setting": "[4]; 6 h", "value": 11, "unit": "times"}, {"measurement": "Cmax", "setting": "[4]; human, oral fluid, n=12", "value": 17200, "unit": "ng/mL"}, {"measurement": "AUC(0-t)", "setting": "[4]; human, oral fluid, n=12, read-out: Oral fluid AUC0–6 h", "value": 44700, "unit": "ng·h/mL"}]}]}
